Measurements taken from patent US20260069571A1, “DDR1 AND DDR2 INHIBITORS FOR THE TREATEMENT OF CANCER AND FIBROTIC DISEASES” (REDX PHARMA PLC, priority 2021, published 2026).

Columns and labels:
Recombinant human DDR2 = Recombinant human DDR2 (Homo sapiens (Human), UniProt Q16832); test: LanthaScreen Eu Kinase Binding Assay, DDR2; details: DDR2 1.75 nM (aa427-855, GST tag), Kinase Tracer 178 10 nM; for IC50: read-out: DDR2 pIC50 (converted)
How it was run: (§1)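 GST-tagged kinase domains (DDR1 aa440-876 at 2.5 nM; DDR2 aa427-855 at 1.75 nM) were preincubated 30 min at room temperature with compound in HEPES pH 7.3 buffer. Then 1 nM Eu-anti-GST plus Tracer 178 (5 nM DDR1, 10 nM DDR2) were added; after 60 min, TR-FRET gave IC50 by four-parameter fit, ≥2 replicates.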

Recombinant human DDR1 = Recombinant human DDR1 (Homo sapiens (Human), UniProt Q08345); test: LanthaScreen Eu Kinase Binding Assay, DDR1; details: DDR1 2.5 nM (aa440-876, GST tag), Kinase Tracer 178 5 nM; for IC50: read-out: DDR1 pIC50 (converted)
How it was run: as §1

Recombinant human DDR1, sequence (Q08345 other isoform, or with tags, fused parts or gaps): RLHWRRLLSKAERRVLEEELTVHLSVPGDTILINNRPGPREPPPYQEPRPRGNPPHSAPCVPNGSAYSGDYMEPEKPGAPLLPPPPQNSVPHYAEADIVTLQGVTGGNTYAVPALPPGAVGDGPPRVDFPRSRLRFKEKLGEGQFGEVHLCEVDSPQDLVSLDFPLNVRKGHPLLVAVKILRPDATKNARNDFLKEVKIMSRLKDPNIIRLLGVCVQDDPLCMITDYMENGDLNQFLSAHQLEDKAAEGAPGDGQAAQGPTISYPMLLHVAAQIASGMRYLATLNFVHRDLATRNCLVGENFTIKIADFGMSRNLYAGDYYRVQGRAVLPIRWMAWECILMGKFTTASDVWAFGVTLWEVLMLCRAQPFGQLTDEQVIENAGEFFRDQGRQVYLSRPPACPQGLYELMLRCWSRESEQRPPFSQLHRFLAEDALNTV
Recombinant human DDR2, sequence (Q16832 427-855): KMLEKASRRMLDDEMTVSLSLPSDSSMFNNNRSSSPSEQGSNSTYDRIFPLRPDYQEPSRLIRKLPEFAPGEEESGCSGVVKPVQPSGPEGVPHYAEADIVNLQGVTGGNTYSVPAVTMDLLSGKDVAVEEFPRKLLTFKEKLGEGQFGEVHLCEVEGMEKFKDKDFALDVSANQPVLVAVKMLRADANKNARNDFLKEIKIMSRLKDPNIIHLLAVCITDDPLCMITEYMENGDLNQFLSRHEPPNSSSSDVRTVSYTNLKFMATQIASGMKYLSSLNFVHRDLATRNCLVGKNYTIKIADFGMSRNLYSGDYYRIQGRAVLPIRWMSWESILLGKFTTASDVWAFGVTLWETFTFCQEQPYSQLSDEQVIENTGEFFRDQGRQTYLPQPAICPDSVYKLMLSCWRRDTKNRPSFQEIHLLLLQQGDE

| Compound | IC50 (Recombinant human DDR2) | IC50 (Recombinant human DDR1) | DDR1 pIC50 (Recombinant human DDR1) | DDR2 pIC50 (Recombinant human DDR2) |
| --- | --- | --- | --- | --- |
| CN(c1cnc2[nH]ncc2c1)c1cccc2c1C(=O)N(CC(=O)N1CCC[C@H]1C(F)(F)F)C2 [Example 88, 7-[methyl(1H-pyrazolo[3,4-b]pyridin-5-yl)amino]-2-[2-oxo-2-[(2S)-(trifluoromethyl)pyrrolidin-1-yl]ethyl]isoindolin-1-one] | 10 to 100 nM | 10 to 100 nM | – | – |
| C[C@H](NC(=O)CN1Cc2cccc(N(C)c3cnc4[nH]ncc4c3)c2C1=O)C(F)(F)F [Example 89, 2-[7-[methyl(1H-pyrazolo[3,4-b]pyridin-5-yl)amino]-1-oxo-isoindolin-2-yl]-N-[(1S)-2,2,2-trifluoro-1-methyl-ethyl]acetamide] | 10 to 100 nM | 10 to 100 nM | – | – |
| CN(c1cnc2[nH]ncc2c1)c1cccc2c1C(=O)N(CC(=O)NCC(F)(F)F)C2 [Example 90, 2-[7-[methyl(1H-pyrazolo[3,4-b]pyridin-5-yl)amino]-1-oxo-isoindolin-2-yl]-N-(2,2,2-trifluoroethyl)acetamide] | 100 to 1000 nM | 10 to 100 nM | – | – |
| CN(c1ccc2[nH]nc(F)c2c1)c1cccc2c1C(=O)N(CC(=O)N1CCC[C@H]1C(F)(F)F)C2 [Example 92, 7-[(3-fluoro-1H-indazol-5-yl)-methyl-amino]-2-[2-oxo-2-[(2S)-(trifluoromethyl)pyrrolidin-1-yl]ethyl]isoindolin-1-one] | 100 to 1000 nM | 10 to 100 nM | – | – |

Continued, values first:

| IC50 (Recombinant human DDR2) | IC50 (Recombinant human DDR1) | DDR1 pIC50 (Recombinant human DDR1) | DDR2 pIC50 (Recombinant human DDR2) | Compound |
| --- | --- | --- | --- | --- |
| 10 to 100 nM | – | A (pIC50>8) | – | Cn1ncc2cc(Nc3cccc4c3C(=O)N(CC(=O)NCC(F)(F)F)C4)cc(F)c21 [Example 93, 2-[7-[(7-fluoro-1-methyl-indazol-5-yl)amino]-1-oxo-isoindolin-2-yl]-N-(2,2,2-trifluoroethyl)acetamide] |
| 10 to 100 nM | 10 to 100 nM | – | – | CN(c1ccc2c(cnn2C)c1)c1cccc2c1C(=O)N(CC(=O)N1CCC[C@H]1C(F)F)C2 [Example 95, 7-[methyl-(1-methylindazol-5-yl)amino]-2-[2-oxo-2-[(2S)-(difluoromethyl)pyrrolidin-1-yl]ethyl]isoindolin-1-one] |
| – | – | A (pIC50>8) | A (pIC50>8) | Cn1ncc2cc(Nc3cccc4c3C(=O)N(CC(=O)N3CCC[C@H]3C(F)(F)F)C4)cc(F)c21 [Example 96, 7-[(7-fluoro-1-methyl-indazol-5-yl)amino]-2-[2-oxo-2-[(2S)-(trifluoromethyl)pyrrolidin-1-yl]ethyl]isoindolin-1-one] |
| 100 to 1000 nM | 10 to 100 nM | – | – | Cn1ncc2cc(Nc3nccc4c3C(=O)N(CC(=O)N3CCC[C@H]3C(F)(F)F)C4)ccc21 [Example 97, 4-[(1-methylindazol-5-yl)amino]-2-[2-oxo-2-[(2S)-(trifluoromethyl)pyrrolidin-1-yl]ethyl]-1H-pyrrolo[3,4-c]pyridin-3-one] |
| 10 to 100 nM | 10 to 100 nM | – | – | Cn1ncc2cc(Nc3cccc4c3C(=O)N(CC(=O)Nc3cncc(C(F)(F)F)c3)C4)cnc21 [Example 99, 2-[7-[(1-methylpyrazolo[3,4-b]pyridin-5-yl)amino]-1-oxo-isoindolin-2-yl]-N-[5-(trifluoromethyl)-3-pyridyl]acetamide] |
| – | – | D (pIC50≤6) | D (pIC50≤6) | Cc1nn(C)c2ncc(Nc3cccc4c3C(=O)N(CC(=O)NCC(F)(F)F)C4)cc12 [Example 101, 2-[7-[(1,3-dimethylpyrazolo[3,4-b]pyridin-5-yl)amino]-1-oxo-isoindolin-2-yl]-N-(2,2,2-trifluoroethyl)acetamide] |
| 100 to 1000 nM | 10 to 100 nM | – | – | Cc1nn(C)c2ncc(Nc3cccc4c3C(=O)N(CC(=O)N3CCC[C@H]3C(F)(F)F)C4)cc12 [Example 102, 7-[(1,3-dimethylpyrazolo[3,4-b]pyridin-5-yl)amino]-2-[2-oxo-2-[(2S)-(trifluoromethyl)pyrrolidin-1-yl]ethyl]isoindolin-1-one] |
